Laboratory results taken from patent US4610868A, “Lipid matrix carriers for use in drug delivery systems” (The Liposome Company, Inc., priority 1984, dated 1986).
Where two headings read alike, the source gives them in different places.

Columns and labels:
[1] = Entrapment of ^14C-sucrose/streptomycin in LMCs (liquid scintillation counting); type: physicochemical; settings: with streptomycin, corn oil/EPC, water-in-oil emulsion
Procedure: Streptomycin (Sigma Chemical Co., St. Louis, Missouri) and ^14 C-sucrose (New England Nuclear, Boston, Massachusetts, 31.3 μCi/m mole) were used together as model water soluble compounds for entrapment in conjunction with corn oil and EPC. The ratio of corn oil to EPC used to prepare the emulsion was […] (weight/weight basis). The water-in-oil emulsion was prepared as follows: 6 ml of corn oil, 40 mg of EPC and 0.3 ml of phosphate buffered saline (PBS) containing 10 μl of ^14 C-sucrose and 100 mg of streptomycin were sonicated together for 45 seconds, using a Branson Model E sonicator at 22° C. The resulting water-in-oil emulsion was then extruded slowly through a 21 gauge syringe needle into 40 ml of the saturated acetone solution, with rapid stirring.
A cloudy suspension of LMCs resulted that was centrifuged at 10,000×gfor 10 minutes at 4° C. The clear supernatant fluid was removed, and the pellet was washed three times with cold saturated acetone, dried under a nitrogen stream, and resuspended in 10 ml of PBS. The hydrated LMCs were then diluted with an equal volume of Ficoll-Paque (Pharmacia Fine Chemicals, Piscataway, New Jersey) and centrifuged at 10,000×g for 10 minutes. […]
In FIG. 4, the data are based upon the stability of streptomycin-LMCs in serum. […] At the times indicated, the absorbances of the samples at 400 and 600 nm were determined, and the 400/600 ratios were computed.

[2] = Entrapment of indomethacin or diazepam in LMCs (radiolabeled tracer); type: physicochemical
Procedure: Ten mg of indomethacin (Sigma Chemical Co., St. Louis, Missouri) plus 10 μl of the ^14 C-labeled drug as a tracer (New England Nuclear, Boston, Massachusetts, 22 mCi/m mole) were dissolved in 1.5 ml of chloroform. This solution was then combined with 4 ml of corn oil and 150 mg of EPC, and the mixture was slowly extruded through a 21 gauge syringe needle into 20 ml of PBS at 45° C., with stirring. After combining all constituents, the mixture was roto-evaporated at 45° C. to remove the chloroform. One ml of the resulting suspension was then combined with an equal volume of Ficoll-Paque, the mixture was centrifuged at 10,000×g for 10 minutes, and the LMCs, which floated to the top of the gradient, were isolated.
By following the procedure described in Section 6.2.1., supra, 5 mg of diazepam (Abbott Laboratories, N. Chicago, Illinois) with a trace of the ^3 H-labeled drug added (New England Nuclear, Boston, Massachusetts, 76.7 Ci/m mole) were incorporated into LMCs.

[3] = type: in vivo, Swiss Webster mice; settings: 80 mg/kg IM
Procedure: LMCs containing oxytetracycline--HCl (Sigma Chemical Co., St. Louis, Missouri) were prepared as described in Section 6.1.3. supra. The LMCs thus produced contained 20 mg of oxytetracycline per ml of hydrated LMCs, as determined by the bioassay described in Section 6.1.3. Ten 25 g female adult Swiss Webster mice were then injected IM with 80 mg/kg of oxytetracycline in one hind leg, using either LMC-oxytetracycline or the free drug. In both cases, the antibiotic was administered in 0.1 ml of physiological saline.
At the times indicated in FIG. 3, samples of clean-catch urine were taken and aliquots were plated onto lawns of S. aureus (ATCC 11632) as described in Section 7.1. Antibiotic levels were quantified by comparison to an oxytetracycline standard curve. […] By 174 hours following injection, urinary levels of oxytetracycline were undetectable.

[4] = Systemic release (urine) of oxytetracycline after topical administration; type: in vivo, Swiss Webster mice; settings: 0.2 ml of 100 mg/ml, 1, 18, 44 and 72 hours
Procedure: (§1) In the following experiment, two groups of adult male Swiss Webster mice were treated with oxytetracycline as follows: 5 mice per group were depilitated on the back of their necks and 0.2 ml of 100 mg/ml oxytetracycline was topically applied to the depilitated area. The control group received oxytetracycline in PBS whereas the second group received oxytetracycline encapsulated in LMCs prepared as described in Section 6.1.3.
Clean catch urine samples were taken at 1, 18, 44, and 72 hours after topical application and aliquots were analyzed for the presence of oxytetracycline using the bioassay previously described in Sections 6.1.2, 7.1, and 7.2.

[5] = Fluorescence/retention of oxytetracycline in skin after topical administration; type: in vivo, Swiss Webster mice; settings: 0.2 ml of 100 mg/ml
Procedure: as §1
On a daily basis the treated area of each mouse was illuminated with ultraviolet light and inspected for fluorescence. Since oxytetracycline is fluorescent, the fluorescence of the treated skin is an indication of the presence of the drug in the skin. Fluorescence could be detected for only 2 days in the control group treated with the aqueous solution of oxytetracycline. […] In contrast, fluorescence could be detected up to 4 days in the group that was treated with oxytetracycline-LMCs.

[6] = parameters: species or system Hartley guinea pigs; settings: guinea pig, in vivo, ip
Procedure: To investigate the drug release characteristics of LMCs in vivo, gentamicin-LMC preparations were injected intraperitoneally (IP) into experimental animals. The final distribution of the drug was then compared with that of similarly injected free gentamicin.
LMCs were prepared as described in Section 6.1.2., using 6 ml of corn oil, 0.3 ml of PBS, 40 mg of EPC, 100 mg of gentamicin (with a small amount of I-gentamicin added as a tracer) and 40 ml of acetone. The resulting product contained 0.5 mg of gentamicin per mg of dry weight LMCs, as determined by gamma counting.
Two groups of 850 g female adult Hartley guinea pigs (Hilltop Farms, Scottsdale, Pennsylvania) were treated as follows: Animals in one group each received 0.3 ml of 100 μg/ml gentamicin in saline (with a small amount of ^125 I-gentamicin added as a tracer), IP. IP injection leads to rapid systemic distribution of the injected material. Animals in the other group received the same quantity of gentamicin entrapped in LMCs. At various times after injection pairs of animals were sacrificed, the hearts, spleens, kidneys and livers were removed, and the quantity of gentamicin in each organ was determined by counting in a crystal gamma counter.

OC[C@H]1O[C@@](CO)(O[C@H]2O[C@H](CO)[C@@H](O)[C@H](O)[C@H]2O)[C@@H](O)[C@@H]1O [^14 C-sucrose, sucrose]
initial amount of ^14 C-sucrose entrapped in the LMCs [1]: 96.5%

CN1C(=O)CN=C(c2ccccc2)c2cc(Cl)ccc21 [diazepam]
degree of entrapment [2]: 93%

COc1ccc2c(c1)c(CC(=O)O)c(C)n2C(=O)c1ccc(Cl)cc1 [indomethacin]
degree of entrapment [2]: 84% | degree of entrapment (starting amount incorporated into the LMCs) ([2]; corn oil/EPC, chloroform): 84%

CN(C)C1C(=O)C(C(N)=O)=C(O)C2(O)C(=O)C3=C(O)c4c(O)cccc4C(C)(O)C3C(O)C12 (stereo not drawn) [oxytetracycline]
time within which urinary levels diminished to zero [3]: ≤ 30 h | oxytetracycline in urine [4]: No detectable levels | duration of detectable skin fluorescence [5]: 2 days | removal from skin by washing [5]: could easily be washed off

gentamicin
Recovery of Gentamicin, Heart ([6]; 15 min): 0.17 % of Total Administered | Recovery of Gentamicin, Kidney ([6]; 15 min): 2.53 % of Total Administered | Recovery of Gentamicin, Liver ([6]; 15 min): 2.60 % of Total Administered | Recovery of Gentamicin, Spleen ([6]; 15 min): 0.09 % of Total Administered | Recovery of Gentamicin, Heart ([6]; 30 min): 1.23 % of Total Administered | Recovery of Gentamicin, Kidney ([6]; 30 min): 4.32 % of Total Administered | Recovery of Gentamicin, Liver ([6]; 30 min): 3.14 % of Total Administered | Recovery of Gentamicin, Spleen ([6]; 30 min): 0.08 % of Total Administered | Recovery of Gentamicin, Heart ([6]; 60 min): 0.15 % of Total Administered | Recovery of Gentamicin, Kidney ([6]; 60 min): 7.04 % of Total Administered | Recovery of Gentamicin, Liver ([6]; 60 min): 2.28 % of Total Administered | Recovery of Gentamicin, Spleen ([6]; 60 min): 0.05 % of Total Administered | Recovery of Gentamicin, Heart ([6]; 120 min): 0.13 % of Total Administered | Recovery of Gentamicin, Kidney ([6]; 120 min): 7.27 % of Total Administered | Recovery of Gentamicin, Liver ([6]; 120 min): 2.00 % of Total Administered | Recovery of Gentamicin, Spleen ([6]; 120 min): 0.04 % of Total Administered
